# Source: ChEMBL document CHEMBL4373744, “Modifying the lipophilic part of phenylthiazole antibiotics to control their drug-likeness” (Eur J Med Chem, 2020)
# The source made the active and inactive calls. The rule behind the calls is not given here.
# What was measured:
# Escherichia coli [1] = assay: Antimicrobial activity against Escherichia coli JW55031 harboring deltatolC mutant by broth liquid microdilution method; format: functional
# Escherichia coli [2] = assay: Antimicrobial activity against Escherichia coli BW25113 by broth liquid microdilution method; format: functional
# Staphylococcus aureus [3] = assay: microbe, parasite or virus in culture; conditions: NRS384
# Description: Antimicrobial activity against methicillin-resistant Staphylococcus aureus NRS384 by broth liquid microdilution method
# Staphylococcus aureus [4] = assay: Bactericidal activity against methicillin-resistant Staphylococcus aureus USA400 assessed as reduction in number of colony forming units at 5 times MIC incubated for 24 hrs by aliquots transfer to tryptic soy agar and grown for 18 to 20 hrs by Time-kill assay; format: functional, organism-based
# [5] = test system: Staphylococcus epidermidis; assay: Antimicrobial activity against methicillin-resistant Staphylococcus epidermidis NRS101 by broth liquid microdilution method; format: functional
# Staphylococcus aureus [6] = assay: microbe, parasite or virus in culture; conditions: NRS123
# Description: Antimicrobial activity against methicillin-resistant Staphylococcus aureus NRS123 by broth liquid microdilution method
# Staphylococcus aureus [7] = assay: microbe, parasite or virus in culture; conditions: NRS 107
# Description: Antimicrobial activity against methicillin-sensitive Staphylococcus aureus NRS 107 by broth liquid microdilution method
# Streptococcus pneumoniae [8] = assay: Antimicrobial activity against methicillin-resistant Streptococcus pneumoniae ATCC 700677 by broth liquid microdilution method; format: functional
# Staphylococcus aureus [9] = assay: Bactericidal activity against methicillin-resistant Staphylococcus aureus USA400 assessed as 3 log reduction in number of colony forming units at 5 times MIC incubated for 10 hrs by aliquots transfer to tryptic soy agar and grown for 18 to 20 hrs by Time-kill assay relative to control; format: functional; set-up: scale not given: the % may be the effect or the level left
# Staphylococcus aureus [10] = assay: microbe, parasite or virus in culture; conditions: NRS119
# Description: Antimicrobial activity against methicillin-resistant Staphylococcus aureus NRS119 by broth liquid microdilution method
# Staphylococcus aureus [11] = assay: Antimicrobial activity against vancomycin-resistant Staphylococcus aureus 10 by broth liquid microdilution method; format: functional
# Staphylococcus aureus [12] = assay: microbe, parasite or virus in culture; conditions: NRS 385
# Description: Antimicrobial activity against methicillin-resistant Staphylococcus aureus NRS 385 by broth liquid microdilution method
# Staphylococcus aureus [13] = assay: microbe, parasite or virus in culture; conditions: ATCC 6538
# Description: Antimicrobial activity against methicillin-sensitive Staphylococcus aureus ATCC 6538 by broth liquid microdilution method
# Staphylococcus aureus [14] = assay: microbe, parasite or virus in culture; conditions: NRS 386
# Description: Antimicrobial activity against methicillin-resistant Staphylococcus aureus NRS 386 by broth liquid microdilution method
# Enterococcus faecium = assay: Antimicrobial activity against vancomycin-resistant Enterococcus faecium ATCC 700221 by broth liquid microdilution method; format: functional
# Streptococcus pneumoniae [15] = assay: Antimicrobial activity against cephalosporin-resistant Streptococcus pneumoniae ATCC 51916 by broth liquid microdilution method; format: functional
# Listeria monocytogenes = assay: Antimicrobial activity against Listeria monocytogenes ATCC 19111 by broth liquid microdilution method; format: functional
# Enterococcus faecalis = assay: microbe, parasite or virus in culture; conditions: ATCC 51299
# Staphylococcus aureus [16] = assay: Antimicrobial activity against vancomycin-resistant Staphylococcus aureus 12 by broth liquid microdilution method; format: functional
smiles,measurement,setting,value
C/C(=N\NC(=N)N)c1sc(-c2ccc(C#CCCN3CCCCC3)cc2)nc1C,MIC,Escherichia coli [1],32 µg/mL
same,MIC,Escherichia coli [2],> 64 µg/mL
same,MIC,Staphylococcus aureus [3],8 µg/mL
C/C(=N\NC(=N)N)c1sc(-c2ccc(OCCCCN3CCSCC3)cc2)nc1C,MIC,Escherichia coli [1],> 64 µg/mL
same,MIC,Escherichia coli [2],> 64 µg/mL
same,MIC,Staphylococcus aureus [3],> 64 µg/mL
C/C(=N\NC(=N)N)c1sc(-c2ccc(OCCCCCN3CCCC(C)C3)cc2)nc1C (centres undefined),MIC,Escherichia coli [1],64 µg/mL
same,MIC,Escherichia coli [2],> 64 µg/mL
same,MIC,Staphylococcus aureus [3],32 µg/mL
C/C(=N\NC(=N)N)c1sc(-c2ccc(OCCCCCN3CCCCC3)cc2)nc1C,MIC,Escherichia coli [1],16 µg/mL
same,MIC,Escherichia coli [2],> 64 µg/mL
same,MIC,Staphylococcus aureus [3],16 µg/mL
C/C(=N\NC(=N)N)c1sc(-c2ccc(OCCCN3CCSC3)cc2)nc1C,MIC,Escherichia coli [1],32 µg/mL
same,MIC,Escherichia coli [2],> 64 µg/mL
same,MIC,Staphylococcus aureus [3],16 µg/mL
C/C(=N\NC(=N)N)c1sc(-c2ccc(OCCCN3CCN(C)CC3)cc2)nc1C,MIC,Escherichia coli [1],> 64 µg/mL
same,MIC,Escherichia coli [2],> 64 µg/mL
same,MIC,Staphylococcus aureus [3],> 64 µg/mL
C/C(=N\NC(=N)N)c1sc(-c2ccc(OCCCN3CCCCC3)cc2)nc1C,MIC,Escherichia coli [1],64 µg/mL
same,MIC,Escherichia coli [2],> 64 µg/mL
same,MIC,Staphylococcus aureus [3],32 µg/mL
C/C(=N\NC(=N)N)c1sc(-c2ccc(C#CCCN3CCSCC3)cc2)nc1C,MIC,Escherichia coli [1],16 µg/mL
same,MIC,Escherichia coli [2],> 64 µg/mL
same,MIC,Staphylococcus aureus [3],32 µg/mL
C/C(=N\NC(=N)N)c1sc(-c2ccc(OCCCCCN3CCC4CCCCC4C3)cc2)nc1C (centres undefined),MIC,Escherichia coli [1],> 64 µg/mL
same,MIC,Escherichia coli [2],> 64 µg/mL
same,MIC,Staphylococcus aureus [3],> 64 µg/mL
C/C(=N\NC(=N)N)c1sc(-c2ccc(OCCCCN3CCCCCC3)cc2)nc1C,MIC,Escherichia coli [1],> 64 µg/mL
same,MIC,Escherichia coli [2],> 64 µg/mL
same,MIC,Staphylococcus aureus [3],> 64 µg/mL
C/C(=N\NC(=N)N)c1sc(-c2ccc(C#CCCN3CCCC(C)C3)cc2)nc1C (centres undefined),MIC,Escherichia coli [1],64 µg/mL
same,MIC,Escherichia coli [2],> 64 µg/mL
same,MIC,Staphylococcus aureus [3],8 µg/mL
C/C(=N\NC(=N)N)c1sc(-c2ccc(C#CCCN3CCSC3)cc2)nc1C,Activity,Staphylococcus aureus [4],Active
same,MBC,[5],8 µg/mL
same,MIC,[5],2 µg/mL
same,MBC,Staphylococcus aureus [6],32 µg/mL
same,MIC,Staphylococcus aureus [6],4 µg/mL
same,MBC,Staphylococcus aureus [7],16 µg/mL
same,MIC,Staphylococcus aureus [7],8 µg/mL
same,MBC,Streptococcus pneumoniae [8],32 µg/mL
same,MIC,Streptococcus pneumoniae [8],8 µg/mL
same,Activity,Staphylococcus aureus [9],99.9%
same,MBC,Staphylococcus aureus [10],16 µg/mL
same,MIC,Staphylococcus aureus [10],4 µg/mL
same,MIC,Escherichia coli [1],16 µg/mL
same,MBC,Staphylococcus aureus [11],32 µg/mL
same,MIC,Staphylococcus aureus [11],4 µg/mL
same,MBC,Staphylococcus aureus [12],16 µg/mL
same,MIC,Staphylococcus aureus [12],4 µg/mL
same,MBC,Staphylococcus aureus [13],32 µg/mL
same,MIC,Staphylococcus aureus [13],4 µg/mL
same,MBC,Staphylococcus aureus [14],16 µg/mL
same,MIC,Staphylococcus aureus [14],4 µg/mL
same,MBC,Enterococcus faecium,16 µg/mL
same,MIC,Enterococcus faecium,4 µg/mL
same,MBC,Streptococcus pneumoniae [15],32 µg/mL
same,MIC,Streptococcus pneumoniae [15],8 µg/mL
same,MIC,Escherichia coli [2],64 µg/mL
same,MBC,Listeria monocytogenes,32 µg/mL
same,MIC,Listeria monocytogenes,4 µg/mL
same,MBC,Enterococcus faecalis,32 µg/mL
same,MIC,Enterococcus faecalis,8 µg/mL
same,MBC,Staphylococcus aureus [3],32 µg/mL
same,MIC,Staphylococcus aureus [3],4 µg/mL
same,MBC,Staphylococcus aureus [16],32 µg/mL
same,MIC,Staphylococcus aureus [16],4 µg/mL
C/C(=N\NC(=N)N)c1sc(-c2ccc(C#CCCN3CCC(C)CC3)cc2)nc1C,MIC,Escherichia coli [1],> 64 µg/mL
same,MIC,Escherichia coli [2],> 64 µg/mL
same,MIC,Staphylococcus aureus [3],16 µg/mL
C/C(=N\NC(=N)N)c1sc(-c2ccc(OCCCN3CCC(C)CC3)cc2)nc1C,MIC,Escherichia coli [1],> 64 µg/mL
same,MIC,Escherichia coli [2],> 64 µg/mL
same,MIC,Staphylococcus aureus [3],> 64 µg/mL
C/C(=N\NC(=N)N)c1sc(-c2ccc(OCCCN3CCCC(C)C3)cc2)nc1C (centres undefined),MIC,Escherichia coli [1],> 64 µg/mL
same,MIC,Escherichia coli [2],> 64 µg/mL
same,MIC,Staphylococcus aureus [3],64 µg/mL
C/C(=N\NC(=N)N)c1sc(-c2ccc(OCCCCCN3CCSCC3)cc2)nc1C,MIC,Escherichia coli [1],> 64 µg/mL
same,MIC,Escherichia coli [2],> 64 µg/mL
same,MIC,Staphylococcus aureus [3],> 64 µg/mL
C/C(=N\NC(=N)N)c1sc(-c2ccc(OCCCn3ccnc3)cc2)nc1C,MIC,Escherichia coli [1],> 64 µg/mL
same,MIC,Escherichia coli [2],> 64 µg/mL
same,MIC,Staphylococcus aureus [3],32 µg/mL
C/C(=N\NC(=N)N)c1sc(-c2ccc(C#CCCN3CCCC3)cc2)nc1C,MIC,Escherichia coli [1],> 64 µg/mL
same,MIC,Escherichia coli [2],> 64 µg/mL
same,MIC,Staphylococcus aureus [3],16 µg/mL
C/C(=N\NC(=N)N)c1sc(-c2ccc(OCCCN3CCOCC3)cc2)nc1C,MIC,Escherichia coli [1],> 64 µg/mL
same,MIC,Escherichia coli [2],> 64 µg/mL
same,MIC,Staphylococcus aureus [3],64 µg/mL
C/C(=N\NC(=N)N)c1sc(-c2ccc(OCCCCN3CCCCC3)cc2)nc1C,MIC,Escherichia coli [1],> 64 µg/mL
same,MIC,Escherichia coli [2],> 64 µg/mL
same,MIC,Staphylococcus aureus [3],> 64 µg/mL
C/C(=N\NC(=N)N)c1sc(-c2ccc(OCCCCCN3CCN(C)CC3)cc2)nc1C,MIC,Escherichia coli [1],> 64 µg/mL
same,MIC,Escherichia coli [2],> 64 µg/mL
same,MIC,Staphylococcus aureus [3],> 64 µg/mL
C/C(=N\NC(=N)N)c1sc(-c2ccc(OCCCCN3CCSC3)cc2)nc1C,MIC,Escherichia coli [1],> 64 µg/mL
same,MIC,Escherichia coli [2],> 64 µg/mL
same,MIC,Staphylococcus aureus [3],> 64 µg/mL
C/C(=N\NC(=N)N)c1sc(-c2ccc(OCCCCN3CCC4CCCCC4C3)cc2)nc1C (centres undefined),MIC,Escherichia coli [1],> 64 µg/mL
same,MIC,Escherichia coli [2],> 64 µg/mL
same,MIC,Staphylococcus aureus [3],> 64 µg/mL
C/C(=N\NC(=N)N)c1sc(-c2ccc(OCCCCCN3CCC3)cc2)nc1C,MIC,Escherichia coli [1],64 µg/mL
same,MIC,Escherichia coli [2],> 64 µg/mL
same,MIC,Staphylococcus aureus [3],32 µg/mL
C/C(=N\NC(=N)N)c1sc(-c2ccc(OCCCCCN3CCCC3)cc2)nc1C,MIC,Escherichia coli [1],> 64 µg/mL
same,MIC,Escherichia coli [2],> 64 µg/mL
same,MIC,Staphylococcus aureus [3],> 64 µg/mL
C/C(=N\NC(=N)N)c1sc(-c2ccc(OCCCCN3CCCCC3C)cc2)nc1C (centres undefined),MIC,Escherichia coli [1],> 64 µg/mL
same,MIC,Escherichia coli [2],> 64 µg/mL
same,MIC,Staphylococcus aureus [3],> 64 µg/mL
